Among the test systems are ACHN; CCRF-CEM; EKVX; HCC 2998; HOP-92; IGROV-1; M14; OVCAR-3; OVCAR-8; PC-3; RPMI-8226; SNB-19; SR; SW-620; T47D; UACC-257; UACC-62; A549; TK-10; SK-MEL-2.
Test in all cases: NCI-60 cell line screen, 48 h

These results are taken from ChEMBL document CHEMBL1201862, “PubChem BioAssay data set” (2004).

Each structure is given as a SMILES string.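 Five concentrations, 48 hours, 96-well plates. GI50 is the concentration that inhibits growth by half.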 Active and inactive are the calls of the source. Cut-off read from the data, not from the text of the source: active = GI50 up to about 1.1 µM and inactive = higher.

In the case of `CC1=C(O)C(O)=C(C2=C(O)C(O)=C(C)C(=O)C2=O)C(=O)C1=O`, the GI50 in the assay with ACHN is 28.1 µM (inactive); in the assay with CCRF-CEM, 60 µM (inactive); in the assay on EKVX it was > 100 µM (inactive); in the assay on HCC 2998 it was 39.1 µM (inactive); in the assay with HOP-92, 29.9 µM (inactive); in the assay on IGROV-1 it was 43.4 µM (inactive). Besides, the GI50 is 38.5 µM (inactive) in the assay on M14; 30.8 µM (inactive) with OVCAR-3; 47.4 µM (inactive) in the assay on OVCAR-8; 60.8 µM (inactive) with PC-3; 34.3 µM (inactive) with RPMI-8226; 50.5 µM (inactive) in the assay with SNB-19. The GI50 is > 100 µM (inactive) with SR; 68.9 µM (inactive) in the assay on SW-620; 37.5 µM (inactive) in the assay with T47D; 35.6 µM (inactive) in the assay on UACC-257; 18.6 µM (inactive) in the assay with UACC-62.

As to `O=C(CC(=O)N(C(=O)/C=C\c1ccccc1)c1ccc(Cl)cc1)N1N=C(c2ccccc2)C(/N=N/c2cccc([N+](=O)[O-])c2)C1=O` (configuration not stated), the GI50 was 5.05 µM (inactive) in the assay on A549; 5.13 µM (inactive) in the assay with ACHN; 1.36 µM (inactive) in the assay with CCRF-CEM; 16.9 µM (inactive) in the assay on EKVX; 3.87 µM (inactive) in the assay on HCC 2998; 51.4 µM (inactive) with HOP-92. Also, the GI50 with IGROV-1 is 9.06 µM (inactive); in the assay on M14, 7.08 µM (inactive); with OVCAR-3 it was 2.36 µM (inactive); in the assay with OVCAR-8 it was 3.78 µM (inactive); in the assay with PC-3, 3.23 µM (inactive); with RPMI-8226, 3.35 µM (inactive). Further, the GI50 in the assay on SNB-19 was 13.9 µM (inactive); with SR, 1.57 µM (inactive); in the assay on SW-620 it was 2.32 µM (inactive); in the assay with T47D it was 4.2 µM (inactive); in the assay on TK-10, 7.89 µM (inactive); with UACC-62 it was 3.09 µM (inactive).

As for `COC(=O)C12OCC34C(CC5C(C)=CC(=O)C(O)C5(C)C3C(O)C1O)OC(=O)C(OC(=O)CC(C)C)C24` (configuration not stated), the GI50 in the assay with A549 was 0.0013 µM (active); with ACHN, < 0.0371 µM (active); with CCRF-CEM it was 0.000486 µM (active); with EKVX, 0.00313 µM (active); with HCC 2998 it was 0.000803 µM (active); with HOP-92 it was 0.00324 µM (active). For the same compound, the GI50 in the assay with IGROV-1 is 0.000564 µM (active); in the assay on M14, < 0.0381 µM (active); in the assay with OVCAR-3 it was 0.000906 µM (active); in the assay on OVCAR-8, 0.00206 µM (active); with PC-3 it was 0.000871 µM (active); in the assay on RPMI-8226, 0.000371 µM (active). The GI50 was 0.00281 µM (active) in the assay on SK-MEL-2; 0.0014 µM (active) with SNB-19; 0.000327 µM (active) with SR; 0.002 µM (active) in the assay with SW-620; 0.00146 µM (active) in the assay with T47D; 0.0444 µM (active) with TK-10. Further, the GI50 in the assay on UACC-257 was 0.00284 µM (active); in the assay with UACC-62, 0.00223 µM (active).

On to `CN(CCCCN1CCCC1)CCCN(C)C(=O)Cc1ccc(Cl)c(Cl)c1`, for which the GI50 in the assay with A549 is 18.7 µM (inactive); in the assay on ACHN, 35.7 µM (inactive); with CCRF-CEM, 4.74 µM (inactive); with EKVX it was 19.5 µM (inactive); in the assay with HCC 2998 it was 3.62 µM (inactive); with HOP-92 it was 4.57 µM (inactive). Moreover, the GI50 with IGROV-1 was 20.2 µM (inactive); in the assay with M14, 17 µM (inactive); in the assay on OVCAR-3, 19.1 µM (inactive); with OVCAR-8 it was 24.4 µM (inactive); with PC-3, 19.1 µM (inactive); in the assay on RPMI-8226, 5.85 µM (inactive). Besides, the GI50 in the assay with SK-MEL-2 is 7.94 µM (inactive); with SNB-19, 23.7 µM (inactive); with SR, 3.3 µM (inactive); in the assay on SW-620, 17.7 µM (inactive); in the assay on T47D, 21 µM (inactive); with TK-10, 17.7 µM (inactive). The GI50 is 3.29 µM (inactive) with UACC-257 and 4.33 µM (inactive) in the assay with UACC-62.

`COc1ccc(/C=C2\CCC(CNc3ccc(Br)cc3)C2=O)cc1` (configuration not stated): the GI50 with A549 is 93.8 µM (inactive); with ACHN, 15.3 µM (inactive); in the assay on CCRF-CEM, 31.8 µM (inactive); in the assay with EKVX, > 100 µM (inactive); in the assay on HCC 2998 it was 83.9 µM (inactive); with HOP-92, > 100 µM (inactive). Moreover, the GI50 in the assay with IGROV-1 is > 100 µM (inactive); in the assay with M14 it was 65.8 µM (inactive); in the assay with OVCAR-3 it was > 100 µM (inactive); in the assay on OVCAR-8, > 100 µM (inactive); in the assay on PC-3, > 100 µM (inactive); in the assay with RPMI-8226, 5.87 µM (inactive). Also, the GI50 was > 100 µM (inactive) in the assay with SNB-19; 24.2 µM (inactive) with SR; 67.3 µM (inactive) with SW-620; 84.7 µM (inactive) in the assay with T47D; 57.5 µM (inactive) in the assay on TK-10; > 100 µM (inactive) in the assay with UACC-257. For the same compound, in the assay with UACC-62, the GI50 was 34.8 µM (inactive).

For `CC(=O)NC1(C)C(C)C2CC1C(C)C2(C)C` (configuration not stated), the GI50 in the assay with A549, in the assay on ACHN, in the assay on CCRF-CEM, in the assay on EKVX, in the assay with HCC 2998 and in the assay with HOP-92 was > 100 µM (inactive) in each case. The GI50 in the assay on IGROV-1, in the assay with M14, with OVCAR-3, in the assay with OVCAR-8, in the assay on PC-3 and in the assay on SNB-19 was > 100 µM (inactive) each time. Besides, the GI50 in the assay with SR, with SW-620, in the assay with T47D, in the assay on TK-10, in the assay with UACC-257 and in the assay on UACC-62 was > 100 µM (inactive) throughout.

Take `CC1C2CCC3C(O)C2(CC(O)C2(O)C1CC(O)C2(C)C)CC3(C)O` (configuration not stated): the GI50 in the assay with A549, with ACHN, in the assay on CCRF-CEM, in the assay with EKVX, with HCC 2998 and in the assay with HOP-92 was > 100 µM (inactive) in each case. In addition, the GI50 in the assay with IGROV-1, with M14, in the assay on OVCAR-8, in the assay on PC-3, in the assay with SK-MEL-2 and in the assay with SNB-19 was > 100 µM (inactive) each time. In addition, the GI50 in the assay with SR, in the assay with SW-620, in the assay with T47D, in the assay with TK-10, in the assay on UACC-257 and in the assay on UACC-62 was > 100 µM (inactive) in each case.

Take `Oc1ccc(SCc2cc(O)c(O)c(O)c2)cc1`: the GI50 was 49.5 µM (inactive) in the assay with A549; 47.9 µM (inactive) in the assay with ACHN; 19.3 µM (inactive) in the assay on CCRF-CEM; > 100 µM (inactive) in the assay with EKVX; > 10 µM (inactive) with HCC 2998; > 100 µM (inactive) in the assay on HOP-92. Besides, the GI50 in the assay on IGROV-1 was 20.5 µM (inactive); in the assay on M14, 17.9 µM (inactive); with OVCAR-3, 39.4 µM (inactive); in the assay with OVCAR-8, 21.6 µM (inactive); with PC-3 it was 40.3 µM (inactive); in the assay with RPMI-8226, 26.7 µM (inactive). Further, the GI50 in the assay on SK-MEL-2 was 26.1 µM (inactive); in the assay on SNB-19, 59.4 µM (inactive); in the assay on SR, 25.5 µM (inactive); in the assay with SW-620 it was 36.5 µM (inactive); in the assay with T47D, > 100 µM (inactive); with TK-10, > 100 µM (inactive). Further, the GI50 in the assay on UACC-257 is > 100 µM (inactive); in the assay with UACC-62, 16.9 µM (inactive).

`Cc1cccc2c(N)c3cccc(C(=O)NCCN(C)C)c3nc12`: the GI50 is < 0.0161 µM (active) with A549; < 0.0163 µM (active) with ACHN; < 0.01 µM (active) in the assay with CCRF-CEM; 0.0583 µM (active) in the assay on EKVX; 0.027 µM (active) in the assay with HCC 2998; < 0.0291 µM (active) in the assay on IGROV-1. The GI50 is 0.143 µM (active) with M14; 0.125 µM (active) in the assay with OVCAR-3; 0.0695 µM (active) with OVCAR-8; 0.0643 µM (active) in the assay on PC-3; < 0.021 µM (active) in the assay on RPMI-8226; 0.231 µM (active) in the assay with SK-MEL-2. In addition, the GI50 was < 0.01 µM (active) with SR; < 0.0225 µM (active) with SW-620; 0.0378 µM (active) in the assay with T47D; 0.214 µM (active) in the assay on TK-10; 0.193 µM (active) in the assay with UACC-257; 0.0649 µM (active) in the assay on UACC-62.

Consider `Nc1ncnc2c1ncn2C1OC(CO)C2OC21` (configuration not stated), for which the GI50 in the assay with A549, with ACHN, with CCRF-CEM, with EKVX, in the assay on HCC 2998 and with HOP-92 was > 100 µM (inactive) each time. Besides, the GI50 was > 100 µM (inactive) in the assay on IGROV-1; > 10 µM (inactive) with M14; > 10 µM (inactive) with OVCAR-3; > 100 µM (inactive) with OVCAR-8; > 100 µM (inactive) with PC-3; > 100 µM (inactive) in the assay with RPMI-8226. The GI50 with SK-MEL-2, in the assay on SNB-19, in the assay with SR, with SW-620, in the assay with T47D and in the assay on TK-10 was > 100 µM (inactive) in each case. Also, the GI50 with UACC-257 and in the assay with UACC-62 was > 100 µM (inactive) in each case.

Turning to `COc1ccc2c(c1OC)CN1CCc3cc4c(cc3C1C2)OCO4` (configuration not stated) [TETRAHYDROBERBERINE], the GI50 in the assay on A549, with ACHN, in the assay with EKVX, with HCC 2998, in the assay on HOP-92 and in the assay with IGROV-1 was > 100 µM (inactive) throughout. Further, the GI50 in the assay with M14, with OVCAR-3, in the assay on OVCAR-8, in the assay with PC-3, in the assay on RPMI-8226 and in the assay on SK-MEL-2 was > 100 µM (inactive) in each case. Further, the GI50 with SNB-19, in the assay with SR, in the assay with SW-620, with T47D, in the assay with TK-10 and with UACC-257 was > 100 µM (inactive) throughout. Also, the GI50 with UACC-62 was > 100 µM (inactive).
